# From patent publication US20020077329A1, “EP4 receptor inhibitors to treat rheumatoid arthritis” (priority 2000, published 2002)
# Marks after values point to notes of the source that are not given here.
# Columns and labels:
# [1] = tested on: rats with adjuvant-induced arthritis; experiment: Arthritic score in adjuvant arthritis (sum of the score for all four limbs); assay type: in vivo, male, Sprague-Dawley rats; conditions: day 14; perorally day 0 to day 14; compound A and B 60 mg/kg bid, piroxicam 3 mg/kg qd, rofecoxib 1.5 mg/kg bid; n=8
# Protocol: (§1) Arthritis was induced in male, Sprague-Dawley rats (115-145 g, Japan SLC Inc., Shizuoka, Japan) on Day 0 by an injection of 300 μg of M. Tuberculosis H37 RA (Difco Laboratories Inc., Detroit, Mich.) in 100 μl of liquid paraffin (Wako Pure Chemical Industries, Ltd., Osaka, Japan) into the right hind footpad (Neuroscience 78: 843-850, 1997) on Day 0.
# (§2) EP4 antagonists included within Formula I as described above (compound A and B, 60 mg/kg, bid), piroxicam (Feldene®, 3 mg/kg, qd), rofecoxib (Vioxx®, 1.5 mg/kg, bid), and control vehicle were each suspended in 0.1% methylcellulose (MC) and perorally administered separately in five groups of rats from day 0 to day 14 in a volume of 1 ml per 100 g body weight.
# On Day 14, the arthritic score of each paw was evaluated as described below. The total arthritic score for each animal was the sum of the score for all four limbs (Agents and Actions 27: 356-358, 1989). […]
# [2] = tested on: rats with adjuvant-induced arthritis; experiment: Paw edema of adjuvant arthritis (hindpaw volume, hydroplethysmometer); assay type: in vivo, male, Sprague-Dawley rats; conditions: for % inhibition contralateral paw / % inhibition ipsilateral paw: paw edema on day 14, perorally day 0 to day 14, compound A and B 60 mg/kg bid, piroxicam 3 mg/kg qd, rofecoxib 1.5 mg/kg bid, n=8
# Protocol: as §1, §2
# Hindpaw volume was measured by an hydroplethysmometer (Ugo Basile, Comerio, Italy) on Day 0, immediately before adjuvant injection, and on Days 1, 4, 7, 11 and 14 after injection. Paw swelling (%) was calculated as follows (Agents and Actions 34: 63-65, 1991):
# swelling (%)={Day X volume (ml)−Day 0 volume (ml)}/Day 0 volume (ml)×100.
structure (smiles),measurement,setting,value
CCc1nc2cc(C(F)(F)F)c(Cl)cc2n1-c1ccc(CCN(C(=O)O)S(=O)(=O)c2ccc(C)cn2)cc1.Cl,melting point,,205.8 °C
"CCc1nc2c(C)nc(C)cc2n1-c1ccc(CCOC(=O)NS(=O)(=O)c2ccc(C)cc2)cc1 [Example 227, 2-[4-(2-ethyl-4,6-dimethyl-1H-imidazo[4,5-c]pyridin-1-yl)phenyl]ethyl (4-methylphenyl)sulfonylcarbamate]",melting point,,158 °C
"CCc1nc2c(C)nc(C)nc2n1-c1ccc(CCOC(=O)NS(=O)(=O)c2ccc(C)cc2)cc1 [Example 228, 2-[4-(8-ethyl-2,6-dimethyl-9H-purin-9-yl)phenyl]ethyl (4-methylphenyl)sulfonylcarbamate]",melting point,,162 °C
"CCc1nc2cc(C(F)(F)F)c(Cl)cc2n1-c1ccc(C[C@H](C)OC(=O)NS(=O)(=O)c2ccc(C)cc2)cc1 [Example 250, (1S)-2-{4-[6-chloro-2-ethyl-5-(trifluoromethyl)-1H-benzimidazol-1-yl]phenyl}-1-methylethyl (4-methylphenyl)sulfonylcarbamate]",melting point,,200.3 °C
"CCc1nc2cc(C(C)=O)ccc2n1-c1ccc(CCOC(=O)NS(=O)(=O)c2ccc(C)cc2)cc1 [Example 332, 2-[4-(5-acetyl-2-ethyl-1H-benzimidazol-1-yl)phenyl]ethyl (4-methylphenyl)sulfonylcarbamate]",melting point,,188 to 190 °C
"CN1C(C(=O)Nc2ccccn2)=C(O)c2ccccc2S1(=O)=O [Piroxicam, piroxicam]",% inhibition (arthritic score),[1],26.7** %
same,% inhibition contralateral paw,[2],96.2* %
same,% inhibition ipsilateral paw,[2],50.8** %
"CS(=O)(=O)c1ccc(C2=C(c3ccccc3)C(=O)OC2)cc1 [Rofecoxib, rofecoxib]",% inhibition (arthritic score),[1],18.5** %
same,edema formation in the ipsilateral paws (result in words),"[2]; during the entire experimental period (day 0 to day 14), versus disease group untreated with compound",weaker activity
same,% inhibition contralateral paw,[2],25.6%
same,% inhibition ipsilateral paw,[2],37.1* %
